According to patent US9732119B2, “Immunomodulators” (BRISTOL-MYERS SQUIBB COMPANY, priority 2014, dated 2017):

target: T1, PD-1-Ig binding to PD-L1-TVMV-His (PD-L1-His) (Homo sapiens, UniProt Q9NZQ7); test: PD-1/PD-L1 Homogenous Time-Resolved Fluorescence (HTRF) binding assay; settings: PD-1-Ig (20 nM) / PD-L1-His (10 nM); numeric values
T1 construct: hPDL1(19-239)-TVMV-His; made in house; host or cells: HEK293T cells
Method in brief: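 HTRF competition: compound pre-incubated 15 min with PD-L1-His (10 nM final), then PD-1-Ig (20 nM final) added for 15 min in dPBS, 0.1% BSA, 0.05% Tween-20. Detection with Eu-cryptate anti-Ig (1 nM) and APC anti-His (20 nM) antibodies.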

T1 sequence (Q9NZQ7 with tags, fused parts or gaps): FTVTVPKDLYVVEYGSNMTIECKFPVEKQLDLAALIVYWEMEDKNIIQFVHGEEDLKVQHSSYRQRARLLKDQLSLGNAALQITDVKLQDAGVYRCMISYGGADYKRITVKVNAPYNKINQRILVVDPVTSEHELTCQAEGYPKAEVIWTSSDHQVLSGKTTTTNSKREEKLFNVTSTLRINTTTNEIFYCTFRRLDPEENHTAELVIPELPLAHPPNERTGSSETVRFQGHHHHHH

Row | IC50 [nM] | Structure (SMILES)
1 | 10000 | C=C(C)C[C@@H]1NC(=O)[C@H](C)N(C)C(=O)[C@H](Cc2ccccc2)NC(=O)CNC[C@@H](C(=O)NCC(N)=O)NC(=O)[C@H](CC(C)C)NC(=O)[C@H](CCCC)N(C)C(=O)[C@H](CCCC)N(C)C(=O)[C@H](Cc2c[nH]c3ccccc23)NC(=O)[C@H](CC(C)C)NC(=O)[C@H](Cc2c[nH]c3ccccc23)NC(=O)[C@@H]2CCCN2C(=O)[C@H](CC(C)C)NC(=O)[C@H](CC(C)C)NC(=O)[C@@H]2CCCN2C1=O [Example 10005]
2 | 70 | CCCC[C@H]1C(=O)N(C)[C@@H](CCCC)C(=O)N[C@@H](C)C(=O)N[C@H](C(=O)NCC(N)=O)CCCNCC(=O)N[C@@H](Cc2ccc(O)cc2)C(=O)N(C)[C@@H](C)C(=O)N[C@@H](CC(=O)O)C(=O)N2CCC[C@H]2C(=O)N[C@@H](Cc2cnc[nH]2)C(=O)N[C@@H](CCC(N)=O)C(=O)N2C[C@H](O)C[C@H]2C(=O)N[C@@H](Cc2c[nH]c3ccccc23)C(=O)N[C@@H](CO)C(=O)N[C@@H](Cc2c[nH]c3ccccc23)C(=O)N1C [Example 10013]

same assay, conditions: PD-1-Ig (20 nM) / PD-L1-His (10 nM); range classes

Row | Structure (SMILES) | IC50 [nM]
3 | CCCC[C@H]1C(=O)N(C)[C@@H](CCCC)C(=O)NC(CC(C)C)C(=O)N[C@H](C(=O)NCC(N)=O)CNCC(=O)N[C@@H](Cc2ccc(O)cc2)C(=O)N(C)[C@@H](C)C(=O)N[C@@H](CC(N)=O)C(=O)N2CCC[C@H]2C(=O)N[C@@H](CC(N)=O)C(=O)N[C@@H](CC(C)C)C(=O)N2C[C@H](O)C[C@H]2C(=O)N[C@@H](Cc2c[nH]c3ccccc23)C(=O)N[C@@H](CC(N)=O)C(=O)N[C@@H](Cc2c[nH]c3ccccc23)C(=O)N1C (some centres unmarked) [Example 10001] | 1 to 9.9
4 | CCCC[C@H]1C(=O)N(C)[C@@H](CCCC)C(=O)NC(CC(C)C)C(=O)N[C@H](C(=O)NCC(N)=O)CNCC(=O)N[C@@H](Cc2ccc(O)cc2)C(=O)N(C)[C@@H](C)C(=O)N[C@@H](CC(N)=O)C(=O)N2CCC[C@H]2C(=O)N[C@@H](CC(N)=O)C(=O)N[C@@H](CC(C)C)C(=O)N2CCC[C@H]2C(=O)N[C@@H](Cc2c[nH]c3ccccc23)C(=O)N[C@@H](CC(N)=O)C(=O)N[C@@H](Cc2c[nH]c3ccccc23)C(=O)N1C (some centres unmarked) [Example 10002] | 10 to 99
5 | CCCC[C@H]1C(=O)N(C)[C@@H](CCCC)C(=O)NC(CC(C)C)C(=O)N[C@H](C(=O)NCC(N)=O)CNCC(=O)N[C@@H](Cc2ccc(O)cc2)C(=O)N(C)[C@@H](C)C(=O)N[C@@H](CC(N)=O)C(=O)N2CCC[C@H]2C(=O)N[C@@H](Cc2cnc[nH]2)C(=O)N[C@@H](CC(C)C)C(=O)N2CCC[C@H]2C(=O)N[C@@H](Cc2c[nH]c3ccccc23)C(=O)N[C@@H](CC(N)=O)C(=O)N[C@@H](Cc2c[nH]c3ccccc23)C(=O)N1C (some centres unmarked) [Example 10003] | 1 to 9.9
6 | CCCC[C@H]1C(=O)N(C)[C@@H](CCCC)C(=O)N[C@@H](CC(C)C)C(=O)N[C@H](C(=O)NCC(N)=O)CNCC(=O)N[C@@H](Cc2ccc(O)cc2)C(=O)N(C)[C@@H](C)C(=O)N[C@@H](CC(N)=O)C(=O)N2CCC[C@H]2C(=O)N[C@@H](Cc2cnc[nH]2)C(=O)N[C@@H](CCC(N)=O)C(=O)N2C[C@H](O)C[C@H]2C(=O)N[C@@H](Cc2c[nH]c3ccccc23)C(=O)N[C@@H](CO)C(=O)N[C@@H](Cc2c[nH]c3ccccc23)C(=O)N1C [Example 10004] | 1 to 9.9
7 | CCCC[C@H]1C(=O)N(C)[C@@H](CCCC)C(=O)N[C@@H](CC(C)C)C(=O)N[C@H](C(=O)NCC(N)=O)CNCC(=O)N[C@@H](Cc2ccc(O)cc2)C(=O)N(C)[C@@H](C)C(=O)N[C@@H](CC(N)=O)C(=O)N2CCC[C@H]2C(=O)N[C@@H](Cc2cnc[nH]2)C(=O)N[C@@H](CC(C)C)C(=O)N2CCC[C@H]2C(=O)N[C@@H](Cc2c[nH]c3ccccc23)C(=O)N[C@@H](CO)C(=O)N[C@@H](Cc2cn(CC(=O)O)c3ccccc23)C(=O)N1C [Example 10006] | 10 to 99

Other lines, results leading:

Row | IC50 [nM] | Structure (SMILES)
8 | 1 to 9.9 | CCCC[C@H]1C(=O)N(C)[C@@H](CCCC)C(=O)N[C@@H](CC(C)C)C(=O)N[C@H](C(=O)NCC(N)=O)CNCC(=O)N[C@@H](Cc2ccc(O)cc2)C(=O)N(C)[C@@H](C)C(=O)N[C@@H](CC(N)=O)C(=O)N2CCC[C@H]2C(=O)N[C@@H](Cc2cnc[nH]2)C(=O)N[C@@H](CC(C)C)C(=O)N2C[C@H](O)C[C@H]2C(=O)N[C@@H](Cc2c[nH]c3ccccc23)C(=O)N[C@@H](CO)C(=O)N[C@@H](Cc2cn(CC(=O)O)c3ccccc23)C(=O)N1C [Example 10007]
9 | 1 to 9.9 | CCCC[C@H]1C(=O)N(C)[C@@H](CCCC)C(=O)N[C@@H](CC(C)C)C(=O)N[C@H](C(=O)NCC(N)=O)CNCC(=O)N[C@@H](Cc2ccc(O)cc2)C(=O)N(C)[C@@H](C)C(=O)N[C@@H](CC(N)=O)C(=O)N2CCC[C@H]2C(=O)N[C@@H](Cc2cnc[nH]2)C(=O)N[C@@H](CCC(N)=O)C(=O)N2C[C@H](O)C[C@H]2C(=O)N[C@@H](Cc2c[nH]c3ccccc23)C(=O)N[C@@H](CO)C(=O)N[C@@H](Cc2cn(CC(=O)O)c3ccccc23)C(=O)N1C [Example 10008]
10 | 100 to 10000 | CCCC[C@H]1C(=O)N(C)[C@@H](CCCC)C(=O)N[C@@H](CC(C)C)C(=O)N[C@H](C(=O)NCC(N)=O)CCNCC(=O)N[C@@H](Cc2ccccc2)C(=O)N(C)[C@@H](C)C(=O)N[C@@H](CC(C)C)C(=O)N2CCC[C@H]2C(=O)N[C@@H](CC(C)C)C(=O)N[C@@H](CC(C)C)C(=O)N2CCC[C@H]2C(=O)N[C@@H](Cc2c[nH]c3ccccc23)C(=O)N[C@@H](CC(C)C)C(=O)N[C@@H](Cc2c[nH]c3ccccc23)C(=O)N1C [Example 10009]
11 | 100 to 10000 | CCCC[C@H]1C(=O)N(C)[C@@H](CCCC)C(=O)N[C@@H](CC(C)C)C(=O)N[C@H](C(=O)NCC(N)=O)CCCNCC(=O)N[C@@H](Cc2ccccc2)C(=O)N(C)[C@@H](C)C(=O)N[C@@H](CC(C)C)C(=O)N2CCC[C@H]2C(=O)N[C@@H](CC(C)C)C(=O)N[C@@H](CC(C)C)C(=O)N2CCC[C@H]2C(=O)N[C@@H](Cc2c[nH]c3ccccc23)C(=O)N[C@@H](CC(C)C)C(=O)N[C@@H](Cc2c[nH]c3ccccc23)C(=O)N1C [Example 10010]
12 | 1 to 9.9 | CCCC[C@H]1C(=O)N(C)[C@@H](CCCC)C(=O)N[C@@H](C)C(=O)N[C@H](C(=O)NCC(N)=O)CNCC(=O)N[C@@H](Cc2ccc(O)cc2)C(=O)N(C)[C@@H](C)C(=O)N[C@@H](CC(=O)O)C(=O)N2CCC[C@H]2C(=O)N[C@@H](Cc2cnc[nH]2)C(=O)N[C@@H](CCC(N)=O)C(=O)N2C[C@H](O)C[C@H]2C(=O)N[C@@H](Cc2c[nH]c3ccccc23)C(=O)N[C@@H](CO)C(=O)N[C@@H](Cc2c[nH]c3ccccc23)C(=O)N1C [Example 10011]
13 | 10 to 99 | CCCC[C@H]1C(=O)N(C)[C@@H](CCCC)C(=O)N[C@@H](C)C(=O)N[C@H](C(=O)NCC(N)=O)CCNCC(=O)N[C@@H](Cc2ccc(O)cc2)C(=O)N(C)[C@@H](C)C(=O)N[C@@H](CC(=O)O)C(=O)N2CCC[C@H]2C(=O)N[C@@H](Cc2cnc[nH]2)C(=O)N[C@@H](CCC(N)=O)C(=O)N2C[C@H](O)C[C@H]2C(=O)N[C@@H](Cc2c[nH]c3ccccc23)C(=O)N[C@@H](CO)C(=O)N[C@@H](Cc2c[nH]c3ccccc23)C(=O)N1C [Example 10012]
14 | 1 to 9.9 | CCCC[C@H]1C(=O)N(C)[C@@H](CCCC)C(=O)N[C@@H](C)C(=O)N[C@H](C(=O)NCC(N)=O)CNCC(=O)N[C@@H](Cc2ccc(O)cc2)C(=O)N(C)[C@@H](C)C(=O)N[C@@H](CC(=O)O)C(=O)N2CCC[C@H]2C(=O)N[C@@H](Cc2cnc[nH]2)C(=O)N[C@@H](CCC(N)=O)C(=O)N2C[C@H](O)C[C@H]2C(=O)N[C@@H](Cc2c[nH]c3ccccc23)C(=O)N[C@@H](CO)C(=O)N[C@@H](Cc2cn(CC(=O)O)c3ccccc23)C(=O)N1C [Example 10014]
